Results on 2 compounds are retold here after publication PMC10976095 (Vaccines, 2024).

SMILES strings stand for the structures. pIC50: −log10 of the molar value. Where a SMILES comes first, the peptide text is derived from it.

Some targets named below: HLA-A*31:01 (Homo sapiens, UniProt P04439, A270S/D185E/E176V/E277Q/F33T/G231S/G80R/H175R/I121M/I218V/I322F/K168Q/L300P/L318F/M331R/P217A/Q94H/R138Q/T323A/T345S/T97I/V358M); HLA-A*68:01 (Homo sapiens, UniProt P04439, A269V/D185E/E176V/E277Q/E87N/F33Y/G231S/I121M/I166T/I218V/L180W/L300P/L318F/N151K/P208A/P217A/Q86R/R169H/T345S); HLA-A*03:01 (Homo sapiens, UniProt P04439); HLA-A*11:01 (Homo sapiens, UniProt P04439, A114D/D185E/E176A/F33Y/L180Q/S129P/T187R); HLA-A*30:01 (Homo sapiens, UniProt P04439, D140H/D185E/E176W/F33S/G80R/H175R/K168Q/R138E/R41S); HLA-A*68:02 (Homo sapiens, UniProt P04439, A269V/D140Y/D185E/E176V/E277Q/E87N/F33Y/G231S/I121R/I166T/I218V/L180W/L300P/L318F/N151K/P208A/P217A/Q86R/R138H/R169H/S129P/T345S/V36M); HLA-A*26:01 (Homo sapiens, UniProt P04439, A114D/A173T/A270S/D101N/D185E/E277Q/E87N/F33Y/G231S/I121R/I218V/K168Q/L180W/L300P/L318F/P208A/P217A/Q86R/Q94H/R138Q/S129P/T187R/T323A/T345S/V100A/V358M); HLA-B*07:02 (Homo sapiens, UniProt P01889).

Experiment in all cases: biochemical
What all share (type): binding

The term pIC50 denotes −log10 of the IC50, conventionally taken in molar units. For `CC(C)C[C@H](NC(=O)[C@H](CO)NC(=O)[C@H](CS)NC(=O)[C@H](Cc1ccccc1)NC(=O)[C@H](CO)NC(=O)[C@@H](N)CC(C)C)C(=O)N[C@@H](Cc1ccccc1)C(=O)N[C@@H](CC(C)C)C(=O)N1CCC[C@H]1C(=O)N[C@@H](CCCCN)C(=O)O` (H-LSFCSLFLPK-OH), the pIC50 was 6.16 on HLA-A*31:01; 9.00 on HLA-A*68:01; 8.37 against HLA-A*03:01; 9.17 against HLA-A*11:01; 6.62 against HLA-A*30:01.

For `CC(C)C[C@H](NC(=O)[C@H](C)NC(=O)[C@H](CCC(N)=O)NC(=O)[C@H](CCCCN)NC(=O)[C@H](Cc1ccccc1)NC(=O)[C@H](CO)NC(=O)[C@H](C)NC(=O)[C@@H](NC(=O)[C@@H](N)CCC(=O)O)C(C)C)C(=O)O` [EVASFKQAL] (H-EVASFKQAL-OH), the negative-log IC50 (pIC50) against HLA-A*68:02 is 8.57; at HLA-A*26:01 it was 7.07; against HLA-B*07:02, 6.60.
